Source: ChEMBL document CHEMBL1201862, “PubChem BioAssay data set” (2004)
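These data come from cells grown in 96-well plates and exposed to compound for 48 hours at five concentrations. Here, GI50 denotes the concentration required for 50% inhibition of growth.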 The source made the active and inactive calls. Cut-off read from the data, not from the text of the source: active = GI50 up to about 1.1 µM and inactive = higher.

What was measured:
Assay in all cases: inhibition of tumour cell growth, NCI panel, 48 h
A498 = test system: A498
CCRF-CEM = test system: CCRF-CEM
HCT-116 = test system: HCT-116
IGROV-1 = test system: IGROV-1
MDA-MB-231 = test system: MDA-MB-231
MDA-N = test system: MDA-N
MOLT-4 = test system: MOLT-4
Malme-3M = test system: Malme-3M
NCI-H23 = test system: NCI-H23
NCI-H460 = test system: NCI-H460
OVCAR-4 = test system: OVCAR-4
OVCAR-5 = test system: OVCAR-5
SF-268 = test system: SF-268
SK-MEL-28 = test system: SK-MEL-28
SK-OV-3 = test system: SK-OV-3
SNB-19 = test system: SNB-19
SW-620 = test system: SW-620
U-251 = test system: U-251
HCC 2998 = test system: HCC 2998

Row | Structure (SMILES) | GI50 (A498) | GI50 (CCRF-CEM) | GI50 (HCT-116) | GI50 (IGROV-1) | GI50 (MDA-MB-231) | GI50 (MDA-N) | GI50 (MOLT-4) | GI50 (Malme-3M) | GI50 (NCI-H23) | GI50 (NCI-H460) | GI50 (OVCAR-4) | GI50 (OVCAR-5) | GI50 (SF-268) | GI50 (SK-MEL-28) | GI50 (SK-OV-3) | GI50 (SNB-19) | GI50 (SW-620) | GI50 (U-251) | GI50 (HCC 2998)
1 | CC(=O)C1=C(C)O[C@@H]2O[C@H](COCc3ccccc3)[C@@H](OCc3ccccc3)[C@H](O)[C@@H]2S1 | 25.1 µM (inactive) | 0.855 µM (active) | 16.4 µM (inactive) | 21.1 µM (inactive) | 20.3 µM (inactive) | 22.6 µM (inactive) | 14 µM (inactive) | 18.3 µM (inactive) | 20.4 µM (inactive) | 17.5 µM (inactive) | 24.7 µM (inactive) | 24.8 µM (inactive) | 15.2 µM (inactive) | 27.7 µM (inactive) | 25.1 µM (inactive) | 38 µM (inactive) | 26.7 µM (inactive) | 20.8 µM (inactive) | –
2 | COC(=O)[C@@H]1c2c(oc3cc(CO)cc(O)c3c2=O)C=C[C@H]1O | 7.26 µM (inactive) | 1.69 µM (inactive) | 2.3 µM (inactive) | 10.8 µM (inactive) | 14.1 µM (inactive) | 4.59 µM (inactive) | 4.52 µM (inactive) | 1.74 µM (inactive) | 19 µM (inactive) | 18.6 µM (inactive) | 3.52 µM (inactive) | 9.51 µM (inactive) | 6.19 µM (inactive) | 4.16 µM (inactive) | 20.5 µM (inactive) | 17.7 µM (inactive) | 3.11 µM (inactive) | 10.5 µM (inactive) | –
3 | CCCC(=O)NC(C(=O)OCC)(N1CCOCC1)C(F)(F)F (stereo not given) | – | > 100 µM (inactive) | > 100 µM (inactive) | > 100 µM (inactive) | > 100 µM (inactive) | > 100 µM (inactive) | > 100 µM (inactive) | > 100 µM (inactive) | > 100 µM (inactive) | – | > 100 µM (inactive) | > 100 µM (inactive) | > 100 µM (inactive) | > 100 µM (inactive) | > 100 µM (inactive) | > 100 µM (inactive) | > 100 µM (inactive) | > 100 µM (inactive) | > 100 µM (inactive)
4 | CCC(=O)Nc1ccc(/N=N/N(C)C)cc1 | > 100 µM (inactive) | – | > 100 µM (inactive) | 2.87 µM (inactive) | > 100 µM (inactive) | – | 6.73 µM (inactive) | 2.13 µM (inactive) | 7.26 µM (inactive) | > 100 µM (inactive) | > 100 µM (inactive) | > 100 µM (inactive) | > 100 µM (inactive) | > 100 µM (inactive) | > 100 µM (inactive) | > 100 µM (inactive) | > 100 µM (inactive) | > 100 µM (inactive) | 1.66 µM (inactive)
5 | COc1ccc(-c2cc(-c3ccccc3)n(C3OC(COC(C)=O)C(OC(C)=O)C(OC(C)=O)C3OC(C)=O)c(=S)c2C#N)cc1 (stereo not given) | – | – | 6.07 µM (inactive) | 14.8 µM (inactive) | 4.79 µM (inactive) | 8.05 µM (inactive) | 17.9 µM (inactive) | 5.87 µM (inactive) | 19.3 µM (inactive) | 7.48 µM (inactive) | 2.6 µM (inactive) | 15.7 µM (inactive) | 14.2 µM (inactive) | 12.6 µM (inactive) | 18.8 µM (inactive) | 11.1 µM (inactive) | 13.9 µM (inactive) | 6.79 µM (inactive) | 22.3 µM (inactive)
6 | CC/C=C/C(=O)CC(O)(C(F)(F)F)C(F)(F)F | 22.5 µM (inactive) | 73.5 µM (inactive) | > 100 µM (inactive) | > 100 µM (inactive) | > 100 µM (inactive) | – | > 100 µM (inactive) | > 100 µM (inactive) | > 100 µM (inactive) | > 100 µM (inactive) | > 100 µM (inactive) | > 100 µM (inactive) | > 100 µM (inactive) | > 100 µM (inactive) | > 100 µM (inactive) | > 100 µM (inactive) | > 100 µM (inactive) | > 100 µM (inactive) | > 100 µM (inactive)
7 | CCOC(=O)c1sc2nc1CSc1sc(=S)sc1SCc1nc(sc1C(=O)OCC)-c1nc(c(C(=O)OCC)s1)CSc1sc(=S)sc1SCc1nc-2sc1C(=O)OCC | – | > 10 µM (inactive) | > 10 µM (inactive) | > 10 µM (inactive) | > 10 µM (inactive) | > 10 µM (inactive) | > 10 µM (inactive) | > 10 µM (inactive) | > 10 µM (inactive) | > 10 µM (inactive) | > 10 µM (inactive) | > 10 µM (inactive) | > 10 µM (inactive) | > 10 µM (inactive) | > 10 µM (inactive) | > 10 µM (inactive) | > 10 µM (inactive) | > 10 µM (inactive) | > 10 µM (inactive)
8 | CC(=O)N1c2ccccc2C23CCN(C)CC4C(C)OCC(C4CC2=O)C13 (stereo not given) | > 100 µM (inactive) | > 100 µM (inactive) | > 100 µM (inactive) | > 100 µM (inactive) | > 100 µM (inactive) | – | > 100 µM (inactive) | > 100 µM (inactive) | > 100 µM (inactive) | > 100 µM (inactive) | > 100 µM (inactive) | > 100 µM (inactive) | > 100 µM (inactive) | > 100 µM (inactive) | > 100 µM (inactive) | > 100 µM (inactive) | > 100 µM (inactive) | > 100 µM (inactive) | > 100 µM (inactive)
9 | OCC12C3C4C5C3C1C5C42 (stereo not given) | > 100 µM (inactive) | > 100 µM (inactive) | > 100 µM (inactive) | 47.3 µM (inactive) | > 100 µM (inactive) | > 100 µM (inactive) | > 100 µM (inactive) | > 100 µM (inactive) | > 100 µM (inactive) | > 100 µM (inactive) | > 100 µM (inactive) | > 100 µM (inactive) | > 100 µM (inactive) | > 100 µM (inactive) | > 100 µM (inactive) | > 100 µM (inactive) | > 100 µM (inactive) | > 100 µM (inactive) | –
10 | CCOC(=O)CO/N=C\C1=CC(=O)C2CC1C2(C)C (stereo not given) | > 100 µM (inactive) | > 100 µM (inactive) | > 100 µM (inactive) | > 100 µM (inactive) | > 100 µM (inactive) | > 100 µM (inactive) | > 100 µM (inactive) | > 100 µM (inactive) | > 100 µM (inactive) | – | – | > 100 µM (inactive) | > 100 µM (inactive) | > 100 µM (inactive) | – | > 100 µM (inactive) | > 100 µM (inactive) | > 100 µM (inactive) | –
11 | O=C(NNC(=O)c1ccccc1SSc1ccccc1C(=O)NNC(=O)c1ccccc1S)c1ccccc1S | – | 1.29 µM (inactive) | 7.18 µM (inactive) | 11.6 µM (inactive) | 19.6 µM (inactive) | 20 µM (inactive) | 6 µM (inactive) | 21.6 µM (inactive) | 12.3 µM (inactive) | 10.4 µM (inactive) | 31.1 µM (inactive) | 44.5 µM (inactive) | 4.24 µM (inactive) | 24.3 µM (inactive) | 46.5 µM (inactive) | 26.2 µM (inactive) | 12 µM (inactive) | 19.5 µM (inactive) | 48.2 µM (inactive)
12 | CC(=O)NNC1=NN(C(C)=O)C2(S1)C(=O)Nc1ccc(Br)cc12 (stereo not given) | > 100 µM (inactive) | > 100 µM (inactive) | > 100 µM (inactive) | 35.9 µM (inactive) | > 100 µM (inactive) | – | > 100 µM (inactive) | > 100 µM (inactive) | > 100 µM (inactive) | 93.3 µM (inactive) | 78.3 µM (inactive) | > 100 µM (inactive) | > 100 µM (inactive) | > 100 µM (inactive) | – | > 100 µM (inactive) | – | > 100 µM (inactive) | > 100 µM (inactive)
13 | Clc1ccc(-c2ccc(-c3nn4c(CNc5ccccc5)nnc4s3)o2)c(Cl)c1 | > 100 µM (inactive) | 46.7 µM (inactive) | 43.6 µM (inactive) | 22.8 µM (inactive) | 69.8 µM (inactive) | 45.1 µM (inactive) | 24 µM (inactive) | > 100 µM (inactive) | 53.6 µM (inactive) | 85.9 µM (inactive) | > 100 µM (inactive) | > 100 µM (inactive) | > 100 µM (inactive) | > 100 µM (inactive) | > 100 µM (inactive) | > 100 µM (inactive) | > 100 µM (inactive) | > 100 µM (inactive) | –
14 | CO/C=C(\Br)c1ccc2c(c1)OCO2 | > 100 µM (inactive) | > 100 µM (inactive) | > 100 µM (inactive) | > 100 µM (inactive) | – | – | 73.5 µM (inactive) | > 100 µM (inactive) | > 100 µM (inactive) | – | > 100 µM (inactive) | > 100 µM (inactive) | > 100 µM (inactive) | > 100 µM (inactive) | > 100 µM (inactive) | > 100 µM (inactive) | > 100 µM (inactive) | > 100 µM (inactive) | –
15 | CC1CC(N)=Nc2ccccc2N1 (stereo not given) | – | > 100 µM (inactive) | > 100 µM (inactive) | 54.2 µM (inactive) | > 100 µM (inactive) | > 100 µM (inactive) | > 100 µM (inactive) | 58.2 µM (inactive) | > 100 µM (inactive) | – | > 100 µM (inactive) | > 100 µM (inactive) | > 100 µM (inactive) | > 100 µM (inactive) | > 100 µM (inactive) | > 100 µM (inactive) | > 100 µM (inactive) | > 100 µM (inactive) | > 100 µM (inactive)
16 | COc1ccc(S(=O)(=O)O)cc1NS(=O)(=O)c1ccc(C)cc1 | > 100 µM (inactive) | > 100 µM (inactive) | > 100 µM (inactive) | > 100 µM (inactive) | > 100 µM (inactive) | > 100 µM (inactive) | > 100 µM (inactive) | – | > 100 µM (inactive) | > 100 µM (inactive) | > 100 µM (inactive) | > 100 µM (inactive) | > 100 µM (inactive) | > 100 µM (inactive) | > 100 µM (inactive) | > 100 µM (inactive) | > 100 µM (inactive) | > 100 µM (inactive) | –
